Experiments:
S. aureus CF35A-L = assay: MIC, microdilution in CAMHB 24 h; format: cell-based, Staphylococcus aureus; details: CF35A-L
S. aureus MA078038 = assay: MIC, microdilution in CAMHB 24 h; format: cell-based, Staphylococcus aureus
S. aureus ATCC 43300 = assay: MIC, microdilution in CAMHB 24 h; format: cell-based, Staphylococcus aureus; details: ATCC 43300
S. aureus ATCC 29213 [1] = assay: Checkerboard assay, aminoglycoside and tomatidine; format: cell-based, Staphylococcus aureus; details: for Aminoglycoside MIC: checkerboard
S. aureus Newbould = assay: MIC, microdilution in CAMHB 24 h; format: cell-based, Staphylococcus aureus; details: Newbould
S. aureus Newman = assay: MIC, microdilution in CAMHB 24 h; format: cell-based, Staphylococcus aureus; details: Newman
S. aureus SHY97-3906 = assay: MIC, microdilution in CAMHB 24 h; format: cell-based, Staphylococcus aureus
S. aureus Sa228c = assay: MIC, microdilution in CAMHB 24 h; format: cell-based, Staphylococcus aureus; details: Sa228c, 8 μg/ml of tomatidine
S. aureus ATCC 29213 [2] = assay: Time-kill experiments, aminoglycoside alone or with tomatidine (FIGS. 8-10)
S. aureus CF4B-L = assay: MIC, microdilution in CAMHB 24 h; format: cell-based, Staphylococcus aureus; details: CF4B-L
S. aureus CF7A-L = assay: MIC, microdilution in CAMHB 24 h; format: cell-based, Staphylococcus aureus; details: CF7A-L
S. aureus CF07-L = assay: MIC, microdilution in CAMHB 24 h; format: cell-based, Staphylococcus aureus; details: CF07-L
S. aureus 8325-4 = assay: MIC, microdilution in CAMHB 24 h; format: cell-based, Staphylococcus aureus; details: 8325-4
S. aureus CF1A-L = assay: MIC, microdilution in CAMHB 24 h; format: cell-based, Staphylococcus aureus; details: CF1A-L
S. aureus ATCC 29213 [3] = assay: MIC, microdilution in CAMHB 24 h, with or without tomatidine/compound; format: cell-based, Staphylococcus aureus; details: for MIC −TO: absence of tomatidine
S. aureus CF8E-L = assay: MIC, microdilution in CAMHB 24 h; format: cell-based, Staphylococcus aureus; details: CF8E-L
S. aureus CF6B-L = assay: MIC, microdilution in CAMHB 24 h; format: cell-based, Staphylococcus aureus; details: CF6B-L
S. aureus CF2A-L = assay: MIC, microdilution in CAMHB 24 h; format: cell-based; details: CF2A-L
S. aureus ATCC BAA-41 = assay: MIC, microdilution in CAMHB 24 h; format: cell-based, Staphylococcus aureus
[4] = SHY-3906, 8 μg/ml of tomatidine
[5] = ATCC 29123, 8 μg/ml of tomatidine

gentamicin
Fold (−TO/+TO) (S. aureus CF35A-L; 8 μg/ml of tomatidine): 8 fold
MIC +TO (S. aureus CF35A-L; 8 μg/ml of tomatidine): 0.06 to 0.12 µg/mL
MIC (S. aureus CF35A-L; Human (CF lungs), MRSA): 0.5 to 1 µg/mL
MIC −TO (S. aureus CF35A-L; absence of tomatidine): 0.5 to 1 µg/mL
MIC +TO (S. aureus MA078038; MA078038, aph(3′)-IIIa, 8 μg/ml of tomatidine): 0.06 µg/mL
MIC −TO (S. aureus MA078038; MA078038, aph(3′)-IIIa, absence of tomatidine): 0.25 to 0.5 µg/mL
Fold (−TO/+TO) (S. aureus MA078038; MA078038, 8 μg/ml of tomatidine): 4-8 fold
MIC (S. aureus MA078038; MA078038, Human (CA), MRSA): 0.25 to 0.5 µg/mL
Fold (−TO/+TO) (S. aureus ATCC 43300; 8 μg/ml of tomatidine): 4 fold
MIC +TO (S. aureus ATCC 43300; 8 μg/ml of tomatidine): 16 to 32 µg/mL
MIC (S. aureus ATCC 43300; Human (HA), MRSA): 64-128 (R) μg/ml
MIC −TO (S. aureus ATCC 43300; absence of tomatidine): 64 to 128 µg/mL
FIC index (S. aureus ATCC 29213 [1]; aminoglycoside with tomatidine, tomatidine MIC considered 32 μg/ml, values overestimated): ≦0.116
Aminoglycoside MIC (S. aureus ATCC 29213 [1]; tomatidine 0 μg/ml): 0.5 to 1 µg/mL
Aminoglycoside MIC (S. aureus ATCC 29213 [1]; tomatidine 0.06 μg/ml): 0.25 µg/mL
Aminoglycoside MIC (S. aureus ATCC 29213 [1]; tomatidine 0.12 μg/ml): 0.06 to 0.25 µg/mL
Aminoglycoside MIC (S. aureus ATCC 29213 [1]; tomatidine 0.25 μg/ml): 0.06 µg/mL
Aminoglycoside MIC (S. aureus ATCC 29213 [1]; tomatidine 0.5 μg/ml): 0.06 µg/mL
Aminoglycoside MIC (S. aureus ATCC 29213 [1]; tomatidine 1 μg/ml): 0.03 to 0.06 µg/mL
Aminoglycoside MIC (S. aureus ATCC 29213 [1]; tomatidine 2 μg/ml): 0.06 to 0.12 µg/mL
Aminoglycoside MIC (S. aureus ATCC 29213 [1]; tomatidine 4 μg/ml): 0.03 to 0.12 µg/mL
Aminoglycoside MIC (S. aureus ATCC 29213 [1]; tomatidine 8 μg/ml): 0.03 to 0.06 µg/mL
MIC +TO (S. aureus Newbould; 8 μg/ml of tomatidine): 0.06 µg/mL
MIC (S. aureus Newbould; Cow (mastitis)): 0.5 to 1 µg/mL
MIC −TO (S. aureus Newbould; absence of tomatidine): 0.5 to 1 µg/mL
Fold (−TO/+TO) (S. aureus Newman; 8 μg/ml of tomatidine): 8-16 fold
MIC +TO (S. aureus Newman; 8 μg/ml of tomatidine): 0.06 µg/mL
MIC (S. aureus Newman; Human (Osteo)): 0.5 to 1 µg/mL
MIC −TO (S. aureus Newman; absence of tomatidine): 0.5 to 1 µg/mL
MIC (S. aureus SHY97-3906; SHY97-3906, Cow (mastitis)): 0.25 µg/mL
Fold (−TO/+TO) (S. aureus SHY97-3906; [4]): 4-8 fold
MIC +TO (S. aureus SHY97-3906; [4]): 0.03 to 0.06 µg/mL
MIC −TO (S. aureus SHY97-3906; SHY-3906, absence of tomatidine): 0.25 µg/mL
MIC +TO (S. aureus Sa228c; aac(6′)-aph(2″), ant(4′)-Ia): 8 to 16 µg/mL
Fold (−TO/+TO) (S. aureus Sa228c): 8 fold
time-kill activity alone (S. aureus ATCC 29213 [2]; alone at ≧1×MIC (1 μg/ml), regrowth observed within 24 h, FIG. 9): bactericidal
time-kill activity of combination (S. aureus ATCC 29213 [2]; gentamicin 0.06 μg/ml combined with tomatidine 8, FIG. 8): strong bactericidal activity
Fold (−TO/+TO) (S. aureus CF4B-L; 8 μg/ml of tomatidine): 4-8 fold
MIC +TO (S. aureus CF4B-L; 8 μg/ml of tomatidine): 0.06 to 0.12 µg/mL
MIC (S. aureus CF4B-L; Human (CF lungs)): 0.5 µg/mL
MIC −TO (S. aureus CF4B-L; absence of tomatidine): 0.5 µg/mL
MIC +TO (S. aureus CF7A-L; ant(4′)-Ia, 8 μg/ml of tomatidine): 0.12 to 0.25 µg/mL
MIC −TO (S. aureus CF7A-L; ant(4′)-Ia, absence of tomatidine): 0.5 to 1 µg/mL
Fold (−TO/+TO) (S. aureus CF7A-L; 8 μg/ml of tomatidine): 2-8 fold
MIC (S. aureus CF7A-L; Human (CF lungs), MRSA): 0.5 to 1 µg/mL
Fold (−TO/+TO) (S. aureus CF07-L; 8 μg/ml of tomatidine): 4-8 fold
MIC +TO (S. aureus CF07-L; 8 μg/ml of tomatidine): 0.06 to 0.25 µg/mL
MIC (S. aureus CF07-L; Human (CF lungs)): 0.5 to 1 µg/mL
MIC −TO (S. aureus CF07-L; absence of tomatidine): 0.5 to 1 µg/mL
Fold (−TO/+TO) (S. aureus 8325-4; 8 μg/ml of tomatidine): 4 fold
MIC +TO (S. aureus 8325-4; 8 μg/ml of tomatidine): 0.03 to 0.06 µg/mL
MIC (S. aureus 8325-4; Laboratory strain): 0.12 to 0.25 µg/mL
MIC −TO (S. aureus 8325-4; absence of tomatidine): 0.12 to 0.25 µg/mL
Fold (−TO/+TO) (S. aureus CF1A-L; 8 μg/ml of tomatidine): 4-8 fold
MIC +TO (S. aureus CF1A-L; 8 μg/ml of tomatidine): 0.12 µg/mL
MIC (S. aureus CF1A-L; Human (CF lungs)): 0.5 to 1 µg/mL
MIC −TO (S. aureus CF1A-L; absence of tomatidine): 0.5 to 1 µg/mL
Fold (−TO/+TO) (S. aureus ATCC 29213 [3]; [5]): 8-32 fold
MIC +TO (S. aureus ATCC 29213 [3]; [5]): 0.03 to 0.06 µg/mL
MIC −TO (S. aureus ATCC 29213 [3]; ATCC 29123): 0.5 to 1 µg/mL
MIC (S. aureus ATCC 29213 [3]; ATCC 29213, Human (SSTI)): 0.5 to 1 µg/mL
MIC −TO (S. aureus ATCC 29213 [3]; ATCC 29213): 0.5-1^ μg/ml
MIC +TO (S. aureus ATCC 29213 [3]; ATCC 29213, presence of tomatidine at 8 μg/ml): 0.03 to 0.06 µg/mL
Fold (−TO/+TO) (S. aureus ATCC 29213 [3]; ATCC 29213, tomatidine at 8 μg/ml): 8-32 fold
Fold (−TO/+TO) (S. aureus CF8E-L; 8 μg/ml of tomatidine): 2-4 fold
MIC +TO (S. aureus CF8E-L; 8 μg/ml of tomatidine): 0.25 to 0.5 µg/mL
MIC (S. aureus CF8E-L; Human (CF lungs)): 1 µg/mL
MIC −TO (S. aureus CF8E-L; absence of tomatidine): 1 µg/mL
MIC +TO (S. aureus CF6B-L; aac(6′)-aph(2″), 8 μg/ml of tomatidine): 16 to 32 µg/mL
MIC −TO (S. aureus CF6B-L; aac(6′)-aph(2″), absence of tomatidine): 128 to 256 µg/mL
Fold (−TO/+TO) (S. aureus CF6B-L; 8 μg/ml of tomatidine): 4-8 fold
MIC (S. aureus CF6B-L; Human (CF lungs)): 128-256 (R) μg/ml
Fold (−TO/+TO) (S. aureus CF2A-L; 8 μg/ml of tomatidine): 4-8 fold
MIC +TO (S. aureus CF2A-L; 8 μg/ml of tomatidine): 0.12 to 0.25 µg/mL
MIC (S. aureus CF2A-L; Human (CF lungs)): 1 µg/mL
MIC −TO (S. aureus CF2A-L; absence of tomatidine): 1 µg/mL
MIC +TO (S. aureus ATCC BAA-41; ATCC BAA-41, ant(4′)-Ia, 8 μg/ml of tomatidine): 0.12 to 0.25 µg/mL
MIC −TO (S. aureus ATCC BAA-41; ATCC BAA-41, ant(4′)-Ia, absence of tomatidine): 0.5 µg/mL
Fold (−TO/+TO) (S. aureus ATCC BAA-41; ATCC BAA-41, 8 μg/ml of tomatidine): 2-4 fold
MIC (S. aureus ATCC BAA-41; ATCC BAA-41, Human (HA), MRSA): 0.5 µg/mL

Reference: patent US9457033B2, “Steroid alkaloids and uses thereof as antimicrobial agents against electron transport-deficient microbes and as potentiators for antimicrobial agents against pathogenic bacteria” (priority 2011, dated 2016)
